PMC9146698, “Mammalian Brain Ca^2+ Channel Activity Transplanted into Xenopus laevis Oocytes” (Membranes, 2022)

System: T1, GABA receptor
T1 construct: gene Gabra1
Experiment: two-electrode voltage clamp, membrane-transplanted oocytes
Type: cell-based, Mus musculus
Conditions: block of GABA-induced Cl- current; n = 5; data not shown

SMILES: CN1CCc2cc3c(cc2[C@H]1[C@@H]1OC(=O)c2c1ccc1c2OCO1)OCO3 [biccuculine]
- % block at 100 μM: 87 ± 2%
